Measured values taken from paper PMC6120918, “Epigenetic modulator UVI5008 inhibits MRSA by interfering with bacterial gyrase” (Scientific Reports, 2018).

How the values were obtained:
DNA gyrase = target: T1, DNA gyrase (Staphylococcus aureus, UniProt P0A0K8+P20831); assay: gyrase supercoiling assay of relaxed pBR322, agarose gel; assay type: biochemical
T1 construct: gene gyrA; recombinant DNA gyrase (A and B subunits; supercoiling assay kit); with DNA gyrase subunits A and B together (holoenzyme; target subunit not determined)

DNA gyrase subunit A = target: T2, DNA gyrase subunit A (Staphylococcus aureus, UniProt P20831); assay: gyrase supercoiling assay, positive control at […]; assay type: biochemical
T2 construct: gene gyrA; recombinant DNA gyrase (A and B subunits; supercoiling assay kit); with DNA gyrase subunit B
T2 sequence (P20831 whole entry): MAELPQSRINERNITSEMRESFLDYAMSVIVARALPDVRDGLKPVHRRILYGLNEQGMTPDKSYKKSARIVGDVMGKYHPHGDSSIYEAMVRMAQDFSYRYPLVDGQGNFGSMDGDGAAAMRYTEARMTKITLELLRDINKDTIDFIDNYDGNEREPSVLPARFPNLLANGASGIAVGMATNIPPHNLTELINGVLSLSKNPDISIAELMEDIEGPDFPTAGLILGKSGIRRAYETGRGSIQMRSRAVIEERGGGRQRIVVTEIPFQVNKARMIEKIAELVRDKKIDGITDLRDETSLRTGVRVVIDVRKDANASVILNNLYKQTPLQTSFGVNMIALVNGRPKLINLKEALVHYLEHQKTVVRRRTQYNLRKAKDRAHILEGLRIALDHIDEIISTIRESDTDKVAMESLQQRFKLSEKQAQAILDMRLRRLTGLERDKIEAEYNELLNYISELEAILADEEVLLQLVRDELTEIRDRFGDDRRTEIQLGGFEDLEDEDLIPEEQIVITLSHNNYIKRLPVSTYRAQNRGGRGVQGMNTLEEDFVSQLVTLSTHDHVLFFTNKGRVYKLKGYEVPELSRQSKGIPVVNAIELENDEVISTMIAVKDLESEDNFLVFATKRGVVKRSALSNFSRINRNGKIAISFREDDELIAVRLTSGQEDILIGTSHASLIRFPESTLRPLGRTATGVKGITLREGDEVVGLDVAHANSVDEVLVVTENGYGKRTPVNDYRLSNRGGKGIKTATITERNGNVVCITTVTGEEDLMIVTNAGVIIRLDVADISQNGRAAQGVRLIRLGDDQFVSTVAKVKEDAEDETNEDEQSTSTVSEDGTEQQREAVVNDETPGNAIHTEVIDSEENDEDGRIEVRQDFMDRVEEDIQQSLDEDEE

T1 sequence (P20831 whole entry): as above
T1 sequence (P0A0K8 2-644): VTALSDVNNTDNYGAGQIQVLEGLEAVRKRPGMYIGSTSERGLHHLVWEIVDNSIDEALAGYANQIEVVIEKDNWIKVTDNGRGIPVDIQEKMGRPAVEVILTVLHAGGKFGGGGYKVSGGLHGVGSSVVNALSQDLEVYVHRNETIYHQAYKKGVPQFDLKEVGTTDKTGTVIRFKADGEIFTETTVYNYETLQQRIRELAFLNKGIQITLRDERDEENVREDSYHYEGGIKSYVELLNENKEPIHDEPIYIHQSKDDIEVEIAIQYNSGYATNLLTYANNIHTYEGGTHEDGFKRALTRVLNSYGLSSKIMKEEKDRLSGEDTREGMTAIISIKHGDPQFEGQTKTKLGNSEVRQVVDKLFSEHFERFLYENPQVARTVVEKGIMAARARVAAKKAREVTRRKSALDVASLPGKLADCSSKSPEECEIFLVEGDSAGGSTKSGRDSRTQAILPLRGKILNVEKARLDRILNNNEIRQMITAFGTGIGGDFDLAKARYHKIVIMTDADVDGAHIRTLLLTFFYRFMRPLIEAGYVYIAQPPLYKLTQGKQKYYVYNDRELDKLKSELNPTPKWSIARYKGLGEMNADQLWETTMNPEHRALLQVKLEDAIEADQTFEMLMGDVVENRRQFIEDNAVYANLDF

SMILES: O=C(NCCSSCCNC(=O)/C(Cc1c[nH]c2ccc(Br)cc12)=N/O)/C(Cc1c[nH]c2ccc(Br)cc12)=N/O [UVI5008]
- IC50 (DNA gyrase): 20.4 µM

SMILES: O=C(O)c1cn(C2CC2)c2cc(N3CCNCC3)c(F)cc2c1=O [ciprofloxacin]
- gyrase supercoiling assay, positive control at 30 μM (DNA gyrase subunit A): Ciprofloxacin was used as the positive control since it blocks gyrase acting on the A subunit
